Residues, ends and D or L forms follow the SMILES beside them.
Tests used:
MCF-7 CSC = assay: Reversal of chemoresistance in MCF-7 CSC (MTS cell viability assay); assay type: cell-based, human
Description: (L) Determination of 50% Inhibitory Concentration (IC50) by MTS Assay:
MCF-7 AC and derived cells were seeded onto 96-well plates at a density of 1×10^4 cells per well and treatments of anticancer drugs or peptides were administered accordingly. Following 72-hour incubation at 37° C. with 5% CO2, cell viability was assessed using CellTiter 96 AQueous Non-Radioactive Cell Proliferation Assay (Promega). The IC50 value was estimated from the optical density at 492 nm using GraphPad.

in vivo = assay: in vivo; parameters: species or system Balb/c mice; settings: mouse, iv, 25 mg/kg
Description: (M) Pharmacokinetic Study of SHARPIN-Derived Peptides:
SHARPIN-derived peptides powder was dissolved in 1×PBS and administered intravenously at 25 mg/kg to overnight-starved Balb/c mice (n=3). At different time points (5, 15, 30, 60, 120, 240, 420 min), blood was collected via cardiac puncture and placed in a heparinized Eppendorf tube followed by centrifuged at 14,000 rpm for 5 min to obtain blood plasma. Plasma was stored at −80° C. until analysis. Plasma concentration data were analyzed by non-compartmental model. Area under plasma concentration-time curve (AUC), distribution half-life (t1/2α) and elimination half-life (t1/2β) were calculated by PK solution2.0 (Summit Research Service, Ashland, USA).
(O) UPLC/QQQ-MS Analysis Protocol:
Agilent 6460 Ultra Performance Liquid Chromatography-Electrospray Ionization Triple Quadrupole mass spectrometer (UPLC-QQQ-MS) was used in sample separation, peptide detection and quantification. Waters Acquity UPLC BEH Protein C4 column (1.7 μm, 2.1×100 mm) was used for separation. SHARPIN-derived peptides were separated and eluted by a gradient of water (0.1% FA, v/v) and acetonitrile (ACN) (0.1% FA, v/v) at a constant flow rate of 0.3 mL/min. During separation, an elution protocol was used as follows. Equilibration: 0 to 1 min, 5% ACN. Elution gradient: 1 to 10 min, ACN from 5 to 99%. Regeneration: 10 to 11 min, 99% ACN, then 11 to 11.5 min, ACN from 99% to 5%. Re-equilibration: 11.5 to 13 min: 5% acetonitrile. A hundred microlitres of plasma/tumor samples were added with 300 μL acetonitrile (1% formic acid (FA)) for protein and peptide precipitation. […] after centrifugation at 14,000 rpm for 10 minutes. Then the samples were reconstituted in 50% methanol (0.1% FA, v/v), filtered through a 0.22 μm nylon filter, and kept in the autosampler at 4° C. for analysis. Twenty microliters were injected into the MS. The MS was operated in positive electrospray ionization (ESI+) mode with supply of 300° C. gas temperature and sheath gas temperature, 8 L/min drying gas, and 11 L/min sheath gas flow and 3.5 kV capillary voltage. The signals of TAT-SP and DRI-TAT-SP were recorded at m/z 563 to 661 at collision energy (CE) of 15 eV and m/z 569 to 637 at CE of 20 eV, respectively. TAT-SP and DRI-TAT-SP were eluted at 4.05 and 3.86 minutes, respectively.

[1] = system: MCF7 human breast cancer xenograft; assay: In vivo efficacy study in MCF7 breast cancer xenograft model
Description: Data obtained are analyzed to evaluate treatment outcomes. Tumor doubling time is calculated using tumor volumes obtained from the end of experiment versus the tumor volumes on the first day of treatment. Tumor inhibition (%) is calculated using the tumor volumes obtained from the end of experiment. Corresponding equations of determining tumor inhibition (T/C) and tumor doubling time (Td) are provided as follows:
(Q) In Vivo Efficacy Study of DRI-TAT-SP Combined with DOX in Treating MCF7 Breast Cancer Xenograft Model:
Six- to eight-week-old female Balb/c nude mice were maintained under specific pathogen-free conditions prior to in vivo efficacy study. Each animal was implanted with a piece of […] pellet 0.72 mg, 60-day release. (Cat No. SE-121, Innovative Research of America, Sarasota, FL). Four days later, the nude mice were inserted at the both flanks with a sesame sized (around 10 mm^3) MCF-7 tumor piece originated from a tumor bulk. When the tumor reached approximately 100 mm^3 (21-28 days), the mice were randomized and administered intravenously with (1) 1×PBS, (2) DOX 1.2 mg/kg, (3) DRI-TAT-SP 25 mg/kg or (4) DOX 1.2 mg/kg+DRI-TAT-SP 25 mg/kg once every 2 days for a total of 10 injections. Tumor volume was measured using digital caliper once every 4 days. Estimated tumor volume (mm^3) was calculated as ½×length (mm)×width (mm)^2. The mouse body weights were recorded once every two days. The tumor doubling time (Td) was calculated as t×log 2/log(Vf/V0), where t, Vf and V0 stand for interval time, percentage change of tumor volume on final day and percentage change of tumor volume on initial day.

FIG. 7B = assay: FIG. 7B
Text: Table printed on a drawing sheet, FIG. 7B
First reader's note: The table is printed as an inset in the plasma level versus time plot of DRI-TAT-SP, and the substance name is taken from the plot axis.

ITGA2/CRT interaction = molecular target: T1, ITGA2/CRT interaction (Homo sapiens, UniProt P17301); assay: Co-immunoprecipitation with anti-CRT antibody: competition with CRT for KXGFFKR motif of ITGA2; assay type: binding; settings: CSC lysate immunoprecipitated with anti-CRT antibody; TAT peptides at 1 μM for 24 hours
T1 construct: endogenous in cells; host or cells: MCF-7-derived cells (lysate)
T1 sequence (P17301 30-1181): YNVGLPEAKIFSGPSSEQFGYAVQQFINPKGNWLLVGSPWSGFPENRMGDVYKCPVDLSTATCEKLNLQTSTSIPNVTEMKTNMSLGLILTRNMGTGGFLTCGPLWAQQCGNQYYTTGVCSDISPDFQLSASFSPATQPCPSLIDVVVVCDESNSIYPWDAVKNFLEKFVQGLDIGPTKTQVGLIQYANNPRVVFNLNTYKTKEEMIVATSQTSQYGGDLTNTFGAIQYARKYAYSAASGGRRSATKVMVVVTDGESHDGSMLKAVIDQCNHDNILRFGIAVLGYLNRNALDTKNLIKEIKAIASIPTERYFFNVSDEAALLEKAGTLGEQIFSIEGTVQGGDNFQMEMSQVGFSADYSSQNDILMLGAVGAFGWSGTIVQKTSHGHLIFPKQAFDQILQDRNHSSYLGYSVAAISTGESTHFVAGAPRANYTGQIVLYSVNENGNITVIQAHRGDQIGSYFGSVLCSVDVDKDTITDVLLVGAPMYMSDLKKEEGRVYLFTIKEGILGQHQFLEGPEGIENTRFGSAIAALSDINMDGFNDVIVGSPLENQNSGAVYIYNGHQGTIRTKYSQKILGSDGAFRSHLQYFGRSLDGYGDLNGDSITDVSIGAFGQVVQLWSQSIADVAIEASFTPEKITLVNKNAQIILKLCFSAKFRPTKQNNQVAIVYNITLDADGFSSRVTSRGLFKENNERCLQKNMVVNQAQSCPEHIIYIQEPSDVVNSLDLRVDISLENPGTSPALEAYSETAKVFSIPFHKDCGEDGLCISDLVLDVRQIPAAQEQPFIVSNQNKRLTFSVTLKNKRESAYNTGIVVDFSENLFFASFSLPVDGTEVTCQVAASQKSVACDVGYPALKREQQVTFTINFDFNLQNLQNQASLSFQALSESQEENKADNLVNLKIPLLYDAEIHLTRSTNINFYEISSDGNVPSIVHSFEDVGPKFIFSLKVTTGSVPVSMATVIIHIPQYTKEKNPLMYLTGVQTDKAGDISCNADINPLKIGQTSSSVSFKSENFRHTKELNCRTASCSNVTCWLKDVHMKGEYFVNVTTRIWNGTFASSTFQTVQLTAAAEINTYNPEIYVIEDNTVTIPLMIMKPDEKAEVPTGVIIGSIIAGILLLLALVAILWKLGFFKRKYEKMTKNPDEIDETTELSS
T1 sequence (P05556 21-798 partner): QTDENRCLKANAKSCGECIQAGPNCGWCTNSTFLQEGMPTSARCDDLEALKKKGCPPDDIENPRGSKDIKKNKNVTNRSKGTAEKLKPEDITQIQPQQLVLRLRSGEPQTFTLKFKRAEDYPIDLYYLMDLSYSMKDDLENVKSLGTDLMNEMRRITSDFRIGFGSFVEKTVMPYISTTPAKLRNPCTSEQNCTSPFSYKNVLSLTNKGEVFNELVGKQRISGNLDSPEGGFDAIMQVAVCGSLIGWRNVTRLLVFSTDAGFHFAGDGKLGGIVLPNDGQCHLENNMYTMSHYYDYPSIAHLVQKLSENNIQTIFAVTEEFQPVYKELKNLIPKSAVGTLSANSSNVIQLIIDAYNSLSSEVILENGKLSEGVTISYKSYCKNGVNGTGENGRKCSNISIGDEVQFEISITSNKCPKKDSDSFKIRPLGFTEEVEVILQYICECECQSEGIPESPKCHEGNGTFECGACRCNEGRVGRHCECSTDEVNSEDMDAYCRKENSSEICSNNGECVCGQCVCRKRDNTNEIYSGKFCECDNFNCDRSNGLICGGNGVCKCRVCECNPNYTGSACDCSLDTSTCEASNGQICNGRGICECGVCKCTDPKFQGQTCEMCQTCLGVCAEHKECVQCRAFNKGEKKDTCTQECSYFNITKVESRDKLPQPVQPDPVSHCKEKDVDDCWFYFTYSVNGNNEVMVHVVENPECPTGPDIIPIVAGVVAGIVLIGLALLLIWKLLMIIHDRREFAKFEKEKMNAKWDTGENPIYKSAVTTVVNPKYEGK
Description: Calreticulin (CRT) from MCF-7-derived cells was immunoprecipitated by anti-CRT (CST) antibody. In brief, MCF-7-derived cells, with or without 24-hour incubation of 1 μM TAT-SP or TAT-SPScr, were collected and subsequently lysed with RIPA buffer on ice for 30 minutes. The lysate was diluted 5-fold with PBS and incubated with anti-CRT antibody overnight at 4° C. with simultaneous mixing on a rotating platform, followed by further incubation of Protein-G PLUS agarose (Santa Cruz Biotechnology) at 4° C. for at least 2 hours.
After incubation, agarose beads were centrifuged and washed by PBS. Immunoprecipitated proteins were collected by treating the beads with 0.2 M glycine and subjected to Western Blotting (WB) analysis.

Akt pathway = assay: Western blotting of p-Akt (T308) in CSCs; assay type: cell-based, human; settings: 1 μM peptide for 24 hours
Description: (K) Protein Preparation and Western Blotting:
Total protein was extracted with RIPA buffer supplied with protease inhibitor (Roche), resolved in 10% SDS-PAGE and transferred onto Immobilon-P PVDF membrane (Millipore). Membranes were blocked with 5% non-fat dry milk in Tris-buffered saline with 0.1% Tween (TBST) for 2 hours, then were incubated overnight with corresponding antibodies at 4° C., followed by incubation with horseradish peroxidase-conjugated goat anti-mouse IgG (Santa Cruz Biotechnology) or goat anti-rabbit IgG (Santa Cruz Biotechnology) as appropriate, for 2 hours at room temperature in TBST. Antibody binding was detected with Pierce ECL Western Blotting Substrate (Thermo Scientific) and images were visualized with Azure C600 imaging system (Azure Biosystems). The antibodies used were anti-ITGA2 (Abcam), anti-CRT (CST), anti-ILR2 (CST), anti-MRP1/ABCC1 (CST), anti-Mdr-1 (Santa Cruz Biotechnology), anti-Akt (pan) (CST), anti-pAkt (S473) (CST), anti-pAkt (T308) (CST), p53 (Santa Cruz Biotechnology) and anti-β-actin (Santa Cruz Biotechnology).

MRP1 = assay: DOX accumulation assay in CSCs; assay type: cell-based, human; settings: 5 μM DOX, 1 μM peptide for 24 hours
Description: (I) DOX Accumulation Assay:
To assess MRP1 activity, 2×10^5 MCF-7 AC and derived cells, with or without 24-hour incubation of 1 μM TAT-SP or TAT-SPScr, were treated with 5 μM DOX at 37° C. for 2 hours. After removal of extracellular drugs, cells were divided into two equal halves. One half was lysed with lysis buffer (isopropanol with 0.75 M HCl and 0.2% Triton X-100) at room temperature for 30 minutes; the other half was incubated with 5 μM CMFDA (Invitrogen) in darkness at room temperature for 30 minutes. The fluorescent intensities of drugs and dyes were detected with CLARIOstar (BMG LABTECH) and relative drug concentrations were normalized to CMFDA level.

CSCs = assay: Annexin V apoptosis assay by flow cytometry in CSCs; assay type: cell-based, human; settings: 1 μM DOX for 24 hours, 1 μM peptide
Description: (F) Flow Cytometry Analysis:
Cells were detached by Phosphate buffered saline (PBS) with 2.5 mM EDTA and washed with PBS. For determining CSC population, a total of 1×10^6 cells were incubated with APC-CD44 (BD Biosciences) and PE-CD24 (BD Biosciences) in FACS solution (PBS with 1% BSA and 1 mM EDTA) for 30 minutes on ice. APC-IgG2 (BD Biosciences) and PE-IgG2 (BD Biosciences) were used as isotype controls. For determining apoptotic population, a total of 1×10^6 cells were first treated with or without 1 μM DOX for 24 hours, in the absence or presence of 1 μM TAT-SP or TAT-SPScr, followed by incubation with FITC-Annexin V (BD Biosciences) and propidium iodide (PI) in binding buffer (10 mM Hepes, pH 7.4, 140 mM NaCl and 2.5 mM CaCl2) for 30 minutes on ice as per the manufacturer's instructions. For determining CRT surface localization, a total of 1×10^6 cells, treated with or without 1 μM DOX for 24 hours, were incubated with anti-CRT antibody (1:800, CST) in PBS with 3% BSA for 1 hour on ice. After washing with PBS, cells were further incubated with 2 μg/mL goat anti-rabbit Alexa Fluor 488 (Invitrogen) for 45 minutes on ice. Fluorescence signals were analyzed by BD Accuri C6 flow cytometer (BD Biosciences).

Compound	EC50 (MCF-7 CSC; MCF-7 breast CSCs, in the presence of DOX, 72-hour incubation, read-out: EC50 of reversing chemoresistance in the presence of DOX (DOX-EC50))	Cmax (in vivo; Balb/c)	half-life (in vivo; Balb/c, distribution half-life t1/2α)	half-life (in vivo; Balb/c, elimination half-life t1/2β)	time of Cmax post administration (in vivo)	No. of toxicity death ([1]; MCF7 xenograft nude mice, deaths/animals)	tumor volume at end of study ([1]; MCF7 xenograft, 20 days, DOX 1.2 mg/kg, DRI-TAT-SP 25 mg/kg)	Tumor inhibition (%) ([1]; MCF7 xenograft, i.v. once every 2 days, 10 injections in 20 days, DOX 1.2 mg/kg, DRI-TAT-SP 25 mg/kg)	Tumor doubling time ([1]; MCF7 xenograft, i.v. once every 2 days, 10 injections, DOX 1.2 mg/kg, DRI-TAT-SP 25 mg/kg)	AUC(0-obs) | ng-min/mL (FIG. 7B)	modulation of CSC chemoresistance with respect to DOX, PTX and VCR (MCF-7 CSC; CSCs, DOX, PTX and VCR IC50 (FIG. 5D))	competition with CRT for the KXGFFKR motif / inhibition of immunoprecipitation of ITGA2 (ITGA2/CRT interaction)	activation of Akt pathway by ITGA2 (p-Akt T308) (Akt pathway)	DOX accumulation (MRP1)	DOX-induced apoptosis (CSCs)
CC[C@@H](C)[C@@H](NC(=O)CNC(=O)[C@@H](CCCNC(=N)N)NC(=O)[C@@H](CS)NC(=O)[C@@H](CC(C)C)NC(=O)[C@@H](CS)NC(=O)[C@H](NC(=O)[C@H]1CCCN1C(=O)[C@@H](CCC(=O)O)NC(=O)[C@@H](CCCNC(=N)N)NC(C)=O)C(C)C)C(=O)N[C@@H](C(=O)N[C@H](Cc1c[nH]c2ccccc12)C(=O)N[C@H](CCCNC(=N)N)C(=O)N[C@H](CCC(N)=O)C(=O)N[C@@H](C(=O)N[C@H](C)C(=O)N1CCC[C@@H]1C(=O)N1CCC[C@@H]1C(=O)N[C@H](Cc1ccccc1)C(=O)NCC(=O)N[C@H](CC(C)C)C(=O)N[C@H](CCC(=O)O)C(=O)N[C@H](CO)C(=O)N[C@H](CCCNC(=N)N)C(=O)N[C@H](CCCNC(=N)N)C(=O)N[C@H](CCCNC(=N)N)C(=O)N[C@H](CCC(N)=O)C(=O)N[C@H](CCCNC(=N)N)C(=O)N[C@H](CCCNC(=N)N)C(=O)N[C@H](CCCCN)C(=O)N[C@H](CCCCN)C(=O)N[C@H](CCCNC(=N)N)C(N)=O)C(C)C)C(C)C [DRI-TAT-SP, Ac-repvclcrgivwrqvappfglesrrrqrrkkr-NH2] (HELM PEPTIDE1{[ac].[dR].[dE].[dP].[dV].[dC].[dL].[dC].[dR].G.[dI].[dV].[dW].[dR].[dQ].[dV].[dA].[dP].[dP].[dF].G.[dL].[dE].[dS].[dR].[dR].[dR].[dQ].[dR].[dR].[dK].[dK].[dR].[am]}$$$$V2.0)	2300 ± 400 nM	870 ng/mL	0.265 h	7.37 h	5 min	0/6	325±135 mm^3	10.1%	12.9 days	118,010 ng-min/mL	–	–	–	–	–
RKKRRQRRRSELGFPPAVQRWVIGRCLCVPER [TAT-SP]	–	–	–	–	–	–	–	–	–	–	able to modulate CSC chemoresistance	compete with CRT	inhibits the activation of Akt pathway	high level of DOX accumulation	leaves CSCs unprotected from DOX-induced apoptosis
SELGFPPAVQRWVIGRCLCVPER [SP, peptide derived from the UBL domain of SHARPIN (residues 259-281)]	–	–	–	–	–	–	–	–	–	–	–	compete with CRT	–	–	–

Source: patent US12037361B2, “Methods for treating multidrug resistant breast cancer” (THE HONG KONG POLYTECHNIC UNIVERSITY, priority 2021, dated 2024)
